# Reference: US5262417A, “Antibacterial quinolone compounds” (The Upjohn Company, priority 1991, dated 1993)
# Several values for one entry are separate records, joined by “and”; a condition that tells them apart may be missing. Equal entries are not always repeated. Where two headings read alike, the source gives them in different places.
# Key:
# Assay type in all cases: cell-based
# Klebsiella pneumoniae = experiment: Minimum inhibitory concentration (MIC) by agar dilution
# Outline: (§1)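 NCCLS agar dilution (1983 method). Unsupplemented MHA; cpd serially diluted into molten agar at 47° C. Inoculum: overnight MHA culture at 35° C → TSB to 0.5 McFarland, 1:20 dilution, 1 μl spots via Steers replicator.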
# Pseudomonas aeruginosa = experiment: as above; settings: for MIC: Pseudomonas aeruginosa
# Outline: as §1
# Escherichia coli = experiment: as above; settings: for MIC: Escherichia coli
# Outline: as §1
# Streptococcus pneumoniae = experiment: as above; settings: for MIC: Streptococcus pneumoniae
# Outline: as §1
# Serratia marcescens = experiment: as above; settings: 20 h, read-out: MINIMUM INHIBITORY CONCENTRATION
# Outline: as §1
# [1] = system: Staphylococcus epidermidis; experiment: as above; settings: 20 h
# Outline: as §1
# Staphylococcus aureus = experiment: as above; settings: for MIC: Staphylococcus aureus
# Outline: as §1
# [2] = system: Pseudomonas aeruginosa UC 95 (PA); experiment: Dipped disk (disk-diffusion) assay, disks loaded with 0.10 ml; settings: Pseudomonas aeruginosa, UC95; Conc 1 mg/ml, 0.10 ml per disk; read-out: Growth Inhibition Zone, PA
# Protocol: (§2) The effectiveness of the subject compounds on some bacteria were obtained by performing a dipped disk assay. The antibacterial activity of the compounds is determined by the disk-diffusion method. […] They were then applied to the surface of microorganism-seeded agar assay trays, which contained the bacterial strain Pseudomonas aeruginosa UC 95 )PA), Escherichia coli UC 51 (EC) or Staphylococcus aureus UC 80 (SA). The assay trays were incubated overnight under aerobic condition to allow for the growth of the organisms. Zones of growth inhibition due to the action of the antibiotic were then measured to the nearest millimeter.
# [3] = system: Staphylococcus aureus UC 80 (SA); experiment: as above
# Protocol: as §2
# [4] = system: Escherichia coli UC 51 (EC); experiment: as above; parameters: zone of inhibition: dose or concentration left out as unconfirmed
# Protocol: as §2
# [5] = system: Pseudomonas aeruginosa UC 95 (PA); experiment: Dip disk (disk-diffusion) assay, disks loaded with 0.05 ml; settings: Pseudomonas aeruginosa, UC95; 0.1 mcg/ml, 0.05 ml per disk; read-out: Growth Inhibition zone, PA
# Protocol: (§3) The effectiveness of the subject compounds on bacteria were obtained by performing a dip disk assay. The antibacterial activity of the compounds was determined by the disk-diffusion method. Paper disks (12.7 mm) were loaded with 0.05 ml of drug solution prepared at a concentration of 0.1 mcg/ml; the disks were allowed to air dry. They were then applied to the surface of microorganism-seeded agar assay trays, which contained the bacterial strain Pseudomonas aeruginosa UC 95 (PA), Escherichia coli UC 51 (EC), Klebsiella pneumoniae UC 57 (KP), or Staphylococcus aureus UC 80 (SA). The assay trays were incubated overnight under aerobic condition to allow for the growth of the organisms. Zones of growth inhibition due to the action of the antibiotic were then measured to the nearest millimeter.
# (§4) The effectiveness of additional compounds 5-9, (5-7 are Formula IAa compounds and 8 and 9 are Formula IAb compounds) on bacteria were obtained by performing a dip disk assay as described above. The antibacterial activity of the compounds was determined by the disk-diffusion method where the disks were loaded with 0.05 ml of drug solution prepared at a concentration of 1.0 mcg/ml; the disks were allowed to air dry.
# [6] = system: Staphylococcus aureus UC 80 (SA); experiment: as above; settings: Staphylococcus aureus, UC80, read-out: Growth Inhibition zone, SA
# Protocol: as §3, §4
# [7] = system: Escherichia coli UC 51 (EC); experiment: as above; settings: Escherichia coli, UC51; 0.1 mcg/ml, 0.05 ml per disk; read-out: Growth Inhibition zone, EC
# Protocol: as §3, §4
smiles,measurement,setting,value
"O=C(O)c1cn(C2CC2)c2cc(N3CCNCC3)c(F)cc2c1=O [Ciprofloxacin, reference compound]",MIC,"Klebsiella pneumoniae; 20 h, read-out: MINIMUM INHIBITORY CONCENTRATION",0.03 µg/mL
same,MIC,"Klebsiella pneumoniae; UC12081, 20 h, read-out: Minimum Inhibitory Concentration",0.03 µg/mL
same,MINIMUM INHIBITORY CONCENTRATION,"Pseudomonas aeruginosa; Cult No. 9191, MHA",0.25 mcg per ml and 0.125 mcg per ml
same,MIC,"Pseudomonas aeruginosa; 20 h, read-out: MINIMUM INHIBITORY CONCENTRATION, Cult No. 6676, MHA",0.5 µg/mL
same,MIC,"Pseudomonas aeruginosa; 20 h, read-out: MINIMUM INHIBITORY CONCENTRATION, Cult No. 9191, MHA",0.25 µg/mL
same,MIC,"Pseudomonas aeruginosa; 20 h, read-out: MINIMUM INHIBITORY CONCENTRATION, Cult No. 12120, MHA",0.125 µg/mL
same,MIC,"Pseudomonas aeruginosa; UC6676, 20 h, read-out: Minimum Inhibitory Concentration, Ps. aeruginosa UC 6676, Table CI",0.5 µg/mL
same,MIC,"Pseudomonas aeruginosa; UC9191, 20 h, read-out: Minimum Inhibitory Concentration, Ps. aeruginosa UC 9191, Table CI",0.125 µg/mL
same,MIC,"Pseudomonas aeruginosa; UC12120, 20 h, read-out: Minimum Inhibitory Concentration, Ps. aeruginosa UC 12120, Table CI",0.125 µg/mL
same,MINIMUM INHIBITORY CONCENTRATION,"Escherichia coli; Cult No. 9855, MHA",0.015 mcg per ml and 0.03 mcg per ml
same,MINIMUM INHIBITORY CONCENTRATION,"Escherichia coli; Cult No. 9952, MHA",0.015 mcg per ml and < 0.008 mcg per ml
same,MIC,"Escherichia coli; 20 h, read-out: MINIMUM INHIBITORY CONCENTRATION, Cult No. 6674, MHA",0.015 µg/mL
same,MIC,"Escherichia coli; 20 h, read-out: MINIMUM INHIBITORY CONCENTRATION, Cult No. 9451, MHA",0.015 µg/mL
same,MIC,"Escherichia coli; 20 h, read-out: MINIMUM INHIBITORY CONCENTRATION, Cult No. 9855, MHA",0.015 µg/mL
same,MIC,"Escherichia coli; 20 h, read-out: MINIMUM INHIBITORY CONCENTRATION, Cult No. 9952, MHA",0.015 µg/mL
same,MIC,"Escherichia coli; UC6674, 20 h, E. coli UC 6674, Table CI, read-out: Minimum Inhibitory Concentration",0.015 µg/mL
same,MIC,"Escherichia coli; UC9451, 20 h, E. coli UC 9451, Table CI, read-out: Minimum Inhibitory Concentration",0.015 µg/mL
same,MIC,"Escherichia coli; UC9855, 20 h, E. coli UC 9855, Table CI, read-out: Minimum Inhibitory Concentration",0.015 µg/mL
same,MIC,"Escherichia coli; UC9952, 20 h, E. coli UC 9952, Table CI, read-out: Minimum Inhibitory Concentration",< 0.008 µg/mL
same,MINIMUM INHIBITORY CONCENTRATION,"Streptococcus pneumoniae; Cult No. 41, MHA",0.5 mcg per ml and 0.25 mcg per ml
same,MIC,"Streptococcus pneumoniae; 20 h, read-out: MINIMUM INHIBITORY CONCENTRATION, Cult No. 41, MHA",0.5 µg/mL
same,MIC,"Streptococcus pneumoniae; UC41, 20 h, read-out: Minimum Inhibitory Concentration, S. pneumoniae UC 41, Table CI",0.5 µg/mL
same,MIC,Serratia marcescens,0.06 µg/mL
same,MIC,[1]; read-out: MINIMUM INHIBITORY CONCENTRATION,0.125 µg/mL
same,MIC,[1]; read-out: Minimum Inhibitory Concentration,0.06 µg/mL
same,MINIMUM INHIBITORY CONCENTRATION,"Staphylococcus aureus; Cult No. 6685, MHA",0.25 mcg per ml and 0.125 mcg per ml
same,MINIMUM INHIBITORY CONCENTRATION,"Staphylococcus aureus; Cult No. 9213, MHA",1 mcg per ml and 0.5 mcg per ml
same,MINIMUM INHIBITORY CONCENTRATION,"Staphylococcus aureus; Cult No. 9218, MHA",0.5 mcg per ml and 0.25 mcg per ml
same,MIC,"Staphylococcus aureus; 20 h, read-out: MINIMUM INHIBITORY CONCENTRATION, Cult No. 3665, MHA",1 µg/mL
same,MIC,"Staphylococcus aureus; 20 h, read-out: MINIMUM INHIBITORY CONCENTRATION, Cult No. 6685, MHA",0.25 µg/mL
same,MIC,"Staphylococcus aureus; 20 h, read-out: MINIMUM INHIBITORY CONCENTRATION, Cult No. 9213, MHA",1 µg/mL
same,MIC,"Staphylococcus aureus; 20 h, read-out: MINIMUM INHIBITORY CONCENTRATION, Cult No. 9218, MHA",0.5 µg/mL
same,MIC,"Staphylococcus aureus; 20 h, read-out: MINIMUM INHIBITORY CONCENTRATION, Cult No. 9271, MHA",0.5 µg/mL
same,MIC,"Staphylococcus aureus; UC6685, 20 h, read-out: Minimum Inhibitory Concentration, S. aureus UC 6685, Table CI",0.25 µg/mL
same,MIC,"Staphylococcus aureus; UC9213, 20 h, read-out: Minimum Inhibitory Concentration, S. aureus UC 9213, Table CI",1 µg/mL
same,MIC,"Staphylococcus aureus; UC9218, 20 h, read-out: Minimum Inhibitory Concentration, S. aureus UC 9218, Table CI",0.5 µg/mL
same,MIC,"Staphylococcus aureus; UC9271, 20 h, read-out: Minimum Inhibitory Concentration, S. aureus UC 9271, Table CI",0.5 µg/mL
same,zone of inhibition at 1000 µg/mL,[2],48 mm
same,"Growth Inhibition Zone, SA","[3]; Conc 1 mg/ml, 0.10 ml per disk",30 mm
same,zone of inhibition at 1000 µg/mL,"[3]; Staphylococcus aureus, UC80, read-out: Growth Inhibition Zone, SA, Conc 1 mg/ml, 0.10 ml per disk",28 mm
same,"Growth Inhibition Zone, EC","[4]; Conc 1 mg/ml, 0.10 ml per disk",35 mm
same,zone of inhibition,"[4]; Escherichia coli, UC51, 0.10 ml per disk, read-out: Growth Inhibition Zone, EC",33 mm
same,zone of inhibition at 0.1 µg/mL,[5],38 mm
same,zone of inhibition at 0.1 µg/mL,[6],27 mm
same,zone of inhibition at 0.1 µg/mL,[7],29 mm
